The experiment is described as follows: Compound was tested for inhibitory activity against carboxypeptidase A.

A word on the Ki: it is a dissociation constant, usually derived from enzyme kinetics or from competition with a known ligand. A low value points to higher affinity. As to `O=C(O)[C@@H](CS)Cc1ccccc1` [(S)-2-Mercaptomethyl-3-phenyl-propionic acid], the affinity corresponds to a Ki of 7.8 nM. In other words, the single-digit nanomolar range.
